Reference: patent US9913820B2, “Antimicrobial compositions comprising glyceryl nitrates” (Board of Regents, The University of Texas System, priority 2012, dated 2018)
Where two headings read alike, the source gives them in different places.

How the values were obtained:
[1] = test system: Candida albicans (CA) biofilm; assay: Modified Kuhns Biofilm Eradication Model (silicone discs), CA; assay type: cell-based; settings: for viable colonies recovered from the biofilm eradication procedure: CA, 2 hrs
[2] = test system: Pseudomonas aeruginosa (PA) biofilm; assay: Modified Kuhns Biofilm Eradication Model (silicone discs), PA; assay type: cell-based; settings: for viable colonies recovered from the biofilm eradication procedure: PA, 2 hrs
[3] = test system: Methicilin resistant Staphyloccus aureus (MRSA) biofilm; assay: Modified Kuhns Biofilm Eradication Model (silicone discs), MRSA; assay type: cell-based; settings: for viable colonies recovered from the biofilm eradication procedure: MRSA, 2 hrs; for GTN concentration required to eradicate MRSA: 7% citrate
[4] = test system: Staphylococcus aureus, Pseudomonas aeruginosa and Candida albicans biofilms; settings: in the presence of ethanol and citrate
[5] = 10% ethanol and 7% citrate, FIG. 5

**Q.** Which results are given for `O=C(O)CC(O)(CC(=O)O)C(=O)O` [Citrate]?
**A.** viable colonies recovered from the biofilm eradication procedure ([1]; component alone at 7%): 2.16E+04 cfu/ml; eradication of mature biofilm within 2 hours (in words) ([1]; Candida Albicans, 7% alone): neither 1 mg/ml GTN nor 7% citrate alone were able to eradicate; viable colonies recovered from the biofilm eradication procedure ([2]; component alone at 7%): 2.24E+04 cfu/ml; eradication of mature biofilm within 2 hours (in words) ([2]; Pseudomonas Aeruginosa, 7% alone): neither 1 mg/ml GTN nor 7% citrate alone were able to eradicate; viable colonies recovered from the biofilm eradication procedure ([3]; component alone at 7%): 2.92E+04 cfu/ml

**Q.** Which results are given for `CCN(CC)C(=S)SSC(=S)N(CC)CC` [Disulfiram]?
**A.** viable colonies recovered from the biofilm eradication procedure ([1]; component alone at 0.2 mg/ml): 0.00E+00 cfu/ml; viable colonies recovered from the biofilm eradication procedure ([2]; component alone at 0.2 mg/ml): 5.00E+05 cfu/ml; viable colonies recovered from the biofilm eradication procedure ([3]; component alone at 0.2 mg/ml): 2.00E+04 cfu/ml

**Q.** How did the “eradication of mature biofilm within 2 hours (in words)” value [1] turn out when `O=[N+]([O-])OCC(CO[N+](=O)[O-])O[N+](=O)[O-]` [GTN, glyceryl trinitrate] was run?
**A.** The value was “neither 1 mg/ml GTN nor 7% citrate alone were able to eradicate”.

**Q.** And the “GTN concentration that eradicated C. albicans” value [1, 5]?
**A.** The value was 0.2 mg/mL.

**Q.** And the “viable colonies recovered from the biofilm eradication procedure” value (from here on “viable colonies recovered”) ([1]; component alone at 1 mg/ml)?
**A.** The value was 5.00E+03 cfu/ml.

**Q.** And the “eradication of mature biofilm within 2 hours (in words)” value [2]?
**A.** Its value is “neither 1 mg/ml GTN nor 7% citrate alone were able to eradicate”.

**Q.** And the “GTN concentration that eradicated P.aeruginosa” value [2, 5]?
**A.** The value was 0.2 mg/mL.

**Q.** What about the “viable colonies recovered” value ([2]; component alone at 1 mg/ml) of the same compound?
**A.** The value was 2.05E+03 cfu/ml.

**Q.** And the “GTN concentration that fully eradicated MRSA” value [3, 5]?
**A.** Its value is 0.5 mg/mL.

**Q.** And the “GTN concentration required to eradicate MRSA” value ([3]; 15% ethanol, FIG. 6)?
**A.** The value was 0.2 mg/mL.

**Q.** And the “GTN concentration required to eradicate MRSA” value ([3]; 20% ethanol, FIG. 7)?
**A.** Its value is 0.1 mg/mL.

**Q.** And the “viable colonies recovered” value ([3]; component alone at 1 mg/ml)?
**A.** The value was 5.00E+03 cfu/ml.

**Q.** What about the “GTN concentration to fully eradicate mature biofilms within 2 hours” value [4] of the same compound?
**A.** The value was 100 microgram/ml.

**Q.** And the “reduction of GTN concentration versus what would be needed by itself” value ([4]; full eradication within 2 hours)?
**A.** Its value is 10 fold.

**Q.** Which “viable colonies recovered” value ([1]; component alone at 5%) does the source give for `O=S(=O)(O)CCS` [MesNA] here?
**A.** The value was 5.00E+05 cfu/ml.

**Q.** What about the “viable colonies recovered” value ([2]; component alone at 5%) of the same compound?
**A.** The value was 5.00E+05 cfu/ml.

**Q.** What about the “viable colonies recovered” value ([3]; component alone at 5%) of the same compound?
**A.** Its value is 5.00E+05 cfu/ml.
